Experiments:
BRD2 (BD1) = biological target: T1, BRD2 (BD1) (Homo sapiens, UniProt P25440); test: Binding inhibitory effect on BRD2 protein (AlphaScreen, GST-BRD2 (BD1) / biotinylated acetyl-histone H4 peptide); conditions: 100 nM GST-BRD2 (BD1), 100 nM biotinylated acetyl-histone H4 (Lys5, 8, 12, 16) peptide
T1 construct: a bromodomain of BRD2 (BD1) and BRD3 (BD1), one of the BRD protein family

BRD3 (BD1) = biological target: T2, BRD3 (BD1) (Homo sapiens, UniProt Q15059); test: Binding inhibitory effect on BRD3 protein (same manner as Experimental Example 1-1)
T2 construct: a bromodomain of BRD2 (BD1) and BRD3 (BD1), one of the BRD protein family; GST
T2 sequence (Q15059 34-140 limits assumed, species assumed): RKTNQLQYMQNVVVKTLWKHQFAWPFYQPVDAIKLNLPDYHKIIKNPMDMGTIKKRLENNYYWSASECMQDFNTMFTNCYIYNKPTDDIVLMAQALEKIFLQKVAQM

[1] = tested on: retinal degeneration mouse model; test: Electroretinogram (ERG) in blue LED-induced retinal degeneration mouse model; assay type: in vivo, albino BALB/c mice; conditions: compound 24 nM, Com. Ex. 4 25 mg/kg; for Wavelength enhanced multiple compared to normal saline-treated group, Average value: average of a-wave and b-wave, intravitreal; for Wavelength enhanced multiple compared to normal saline-treated group, a-wave / Wavelength enhanced multiple compared to normal saline-treated group, b-wave: single intravitreal injection 1 hour after LED exposure
Procedure: In order to fabricate a retinal degeneration model, 7-week-old male albino BALB/c mice were used. Three mice were randomly assigned to each test group, and light and dark were maintained at 12-hour intervals. Each mouse was dark-adapted for 24 hours and then the pupils were dilated with 0.5% tropicamide and 0.5% phenylephrine hydrochloride eye drops (Santen, Osaka, Japan) 30 minutes before blue LED exposure. Unanesthetized mice were exposed to 2,000 lux of a blue LED (460 ± 10 nm) for 2 hours in a cage with reflective interiors. The light intensity was measured using an LED photometer (model TM-201L, TENMARS Electronics, Taipei, Taiwan). After exposure to blue LED, the mice were kept in the dark for 24 hours and then resumed on a 12-hour light/dark cycle for 3 days.
In a test substance control test, mice with retinal degeneration were divided into a normal saline-administered group and a compound-administered group (24 nM) of the present disclosure, and 3 mice were randomly assigned to each test group. A positive control test was divided into a normal saline-administered group and an Eyela (25 mg/kg mouse body weight)-administered group (Comparative Example 4), and three mice were randomly assigned to each test group.
All test groups were administered as a single dose by intravitreal injection 1 hour after LED exposure.
That is, mice were stored in a completely dark room for 16 hours before ERG recordings. All animals were anesthetized intraperitoneally with zolazepam (20 mg/kg) and xylazine (7.5 mg/kg). The cornea was coated with hydroxypropyl methylcellulose gel and covered with a gold ring contact electrode. Ground and reference electrodes were disposed subcutaneously on the tail and ears, respectively. Stimuli were short white flashes delivered through a Ganzfeld stimulator (UTAS-3000; LKC Technologies, Gaithersburg, MD, USA). The signal was amplified and filtered through a digital band-pass filter in the range of 5 to 300 Hz to generate a and b waves. Scotopic ERG, and rod-mediated responses were obtained at increasing light intensities of 0.025 and 3.96 cd/s • m^2. Photopic, cone-mediated responses were obtained after 5-min light adaptation to background light intensity. The recordings were obtained at the light intensity of 6.28 cd/s • m^2. Each recording was the average of three responses obtained within a 15-second stimulation interval. A-wave amplitude was measured from a baseline to the maximum a-wave peak, and b-wave amplitude was measured from the maximum a-wave peak to the maximum b-wave peak.

[2] = tested on: macular degeneration animal model; test: Laser burn-induced macular degeneration animal model, OCT and FFA image analysis; assay type: in vivo, mouse; conditions: compounds 0.022 µg/eye, Com. Ex. 4 20 µg/eye
Procedure: After the mouse was subjected to general anesthesia, the eye was applied with anesthetic eye drops to be subjected to additional local anesthesia and additionally induce mydriasis. A macular degeneration animal model was prepared by destroying the Bruch's membrane by inducing laser burn according to macular degeneration induction conditions. […] On day 11 of macular degeneration induction, the mice were subjected to general anesthesia and then injected intraperitoneally with a fluorescent contrast agent. The mouse was placed on the sacrifice table, lubricating gel was dropped into the corresponding eye, and an OCT lens was brought into contact with the mouse's cornea. Image analysis for fluorescein fundus angiography (FFA) and OCT was performed using the Image-J program.

T1 sequence (P25440 74-180 limits assumed, species assumed): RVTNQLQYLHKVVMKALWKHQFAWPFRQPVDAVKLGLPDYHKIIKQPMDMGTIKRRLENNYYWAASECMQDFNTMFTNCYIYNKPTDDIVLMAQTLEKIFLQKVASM

| SMILES | IC50 (BRD2 (BD1)) | IC50 (BRD3 (BD1)) | Wavelength enhanced multiple compared to normal saline-treated group, Average value [1] | Wavelength enhanced multiple compared to normal saline-treated group, a-wave [1] | Wavelength enhanced multiple compared to normal saline-treated group, b-wave [1] | Lesion size compared to negative control group (FFA) ([2]; FFA imaging, day 11, negative control = excipient) | CTF value ([2]; FFA imaging, day 11 of macular degeneration induction, both eyes) | Lesion size compared to negative control group (OCT) ([2]; OCT imaging, day 11, negative control = excipient) | Volume of lesion ([2]; OCT imaging, day 11 of macular degeneration induction, both eyes) |
| --- | --- | --- | --- | --- | --- | --- | --- | --- | --- |
| CNC(=O)C1(Cc2ccc(F)cc2)CCN(Cc2ccc(-c3ccccc3-c3cccc4c3CN(C)C4=O)o2)CC1 [Compound 21, 2-methyl-4-(2-(5-(((4-(4-fluorobenzyl)-4'-carboxamidyl)piperidine)methyl)furan-2-yl)phenyl)isoindoline-1-one] | 13.9 µM | 1.16 µM | 2.30 | 2.17 | 2.42 |  |  |  |  |
| CNC(=O)C1(C)CN(Cc2ccc(-c3ccccc3-c3cccc4c3CN(C)C4=O)o2)CCC1O (stereo not drawn) [Compound 25] | 7.68 µM | 1.29 µM | 1.27 | 1.52 | 1.01 |  |  |  |  |
| CNC(=O)C1(Cc2ccccc2)CCCN1Cc1ccc(-c2ccccc2-c2cccc3c2CN(C)C3=O)o1 (stereo not drawn) [Compound 28] | 10.9 µM | 4.36 µM | 1.33 | 1.31 | 1.35 | 35.40% | 325,936 Pixels | 51.99% | 1,132,542 µm^3 |
| CN1Cc2c(cccc2-c2ccccc2-c2ccc(COCN3CCC(F)(F)CC3)o2)C1=O [Compound 37, 2-methyl-4-(2-(5-((((4,4-difluoropiperidine-1-yl)methoxy)-3-carboxamidyl)methyl)furan-2-yl)phenyl)isoindoline-1-one] | 9.5 µM | 4.76 µM | 1.38 | 1.45 | 1.31 |  |  |  |  |
| CNC(=O)C1(Cc2ccc(F)cc2)CCN(Cc2oc(-c3ccccc3-c3cccc4c3CN(C)C4=O)cc2C)CC1 [Compound 39, 2-methyl-4-(2-(5-((3-methyl(4-(4-fluorobenzyl)-4'-carboxamidyl)piperidine)methyl)furan-2-yl)phenyl)isoindoline-1-one] | 8.67 µM | 4.16 µM | 1.36 | 1.21 | 1.51 |  |  |  |  |
| CCC1(C(=O)NC)CCCN(Cc2oc(-c3ccccc3-c3cccc4c3CN(C)C4=O)cc2C)C1 (stereo not drawn) [Compound 40] | 10.6 µM | 3.96 µM | 1.30 | 1.16 | 1.43 |  |  |  |  |
| CNC(=O)CC1C(=O)NCCN1Cc1oc(-c2ccccc2-c2cccc3c2CN(C)C3=O)cc1C (stereo not drawn) [Compound 42, 2-methyl-4-(2-(5-(3-methyl(N-methyl-2-(3-oxopiperazine-2yl)acetamidyl)methyl)furan-2-yl)phenyl)isoindoline-1-one] | 10.9 µM | 3.77 µM | 1.32 | 1.25 | 1.38 |  |  |  |  |
